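Exposure lasted 48 hours, with cells grown in 96-well plates and compounds tested at five concentrations. TGI: total growth inhibition.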
Experiments:
Experiment in all cases: NCI tumour cell line growth inhibition, 48 h
786-0 renal = tested on: 786-0 renal
A498 renal = tested on: A498 renal
A549 NSCLC = tested on: A549 NSCLC
ACHN renal = tested on: ACHN renal
CAKI-1 renal = tested on: CAKI-1 renal
CCRF-CEM leukemia = tested on: CCRF-CEM leukemia
DLD-1 colon = tested on: DLD-1 colon
DMS 114 small cell lung = tested on: DMS 114 small cell lung
DMS 273 small cell lung = tested on: DMS 273 small cell lung
EKVX NSCLC = tested on: EKVX NSCLC
HCC-2998 colon = tested on: HCC-2998 colon
HCT-116 colon = tested on: HCT-116 colon
HCT-15 colon = tested on: HCT-15 colon
HL-60(TB) leukemia = tested on: HL-60(TB) leukemia
HOP-18 NSCLC = tested on: HOP-18 NSCLC
HOP-62 NSCLC = tested on: HOP-62 NSCLC
HOP-92 NSCLC = tested on: HOP-92 NSCLC
HT29 colon = tested on: HT29 colon
IGROV1 ovarian = tested on: IGROV1 ovarian
K-562 leukemia = tested on: K-562 leukemia
KM12 colon = tested on: KM12 colon
KM20L2 colon = tested on: KM20L2 colon
LOX IMVI melanoma = tested on: LOX IMVI melanoma
LXFL 529 NSCLC = tested on: LXFL 529 NSCLC
M14 melanoma = tested on: M14 melanoma
M19-MEL melanoma = tested on: M19-MEL melanoma
MALME-3M melanoma = tested on: MALME-3M melanoma
MOLT-4 leukemia = tested on: MOLT-4 leukemia
NCI-H226 lung = tested on: NCI-H226 lung
NCI-H23 lung = tested on: NCI-H23 lung
NCI-H460 lung = tested on: NCI-H460 lung
OVCAR-3 ovarian = tested on: OVCAR-3 ovarian
OVCAR-4 ovarian = tested on: OVCAR-4 ovarian
OVCAR-5 ovarian = tested on: OVCAR-5 ovarian
OVCAR-8 ovarian = tested on: OVCAR-8 ovarian
RPMI-8226 leukemia = tested on: RPMI-8226 leukemia
RXF 393 renal = tested on: RXF 393 renal
RXF-631 renal = tested on: RXF-631 renal
SF-268 CNS = tested on: SF-268 CNS
SF-295 CNS = tested on: SF-295 CNS
SF-539 CNS = tested on: SF-539 CNS
SK-MEL-2 melanoma = tested on: SK-MEL-2 melanoma
SK-MEL-28 melanoma = tested on: SK-MEL-28 melanoma
SK-MEL-5 melanoma = tested on: SK-MEL-5 melanoma
SN12C renal = tested on: SN12C renal
SNB-19 CNS = tested on: SNB-19 CNS
SNB-75 CNS = tested on: SNB-75 CNS
SNB-78 CNS = tested on: SNB-78 CNS
SR leukemia = tested on: SR leukemia
SW-620 colon = tested on: SW-620 colon
TK-10 renal = tested on: TK-10 renal
UACC-257 melanoma = tested on: UACC-257 melanoma
UACC-62 melanoma = tested on: UACC-62 melanoma
UO-31 renal = tested on: UO-31 renal
XF 498 CNS = tested on: XF 498 CNS

Measured: TGI

C/C(CCn1[nH]c(=O)ccc1=O)=N\O
> 100 µM: all assays above
